Experimental data: PubChem BioAssay (NCI)
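Values below derive from 48-hour exposures of cells grown in 96-well plates, with endpoints linearly interpolated between the two concentrations bracketing the appropriate inhibition level. Definition used: TGI = concentration required for complete inhibition of growth.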

What was measured:
Test in all cases: DTP human tumour cell line panel, 48 h
A549 NSCLC = tested on: A549 NSCLC
ACHN renal = tested on: ACHN renal
BT-549 breast = tested on: BT-549 breast
CCRF-CEM leukemia = tested on: CCRF-CEM leukemia
HT29 colon = tested on: HT29 colon
M14 melanoma = tested on: M14 melanoma
MDA-MB-435 = tested on: MDA-MB-435
NCI-H226 lung = tested on: NCI-H226 lung
NCI-H460 lung = tested on: NCI-H460 lung
OVCAR-3 ovarian = tested on: OVCAR-3 ovarian
OVCAR-5 ovarian = tested on: OVCAR-5 ovarian
SF-295 CNS = tested on: SF-295 CNS
SK-OV-3 ovarian = tested on: SK-OV-3 ovarian
SN12C renal = tested on: SN12C renal
SNB-75 CNS = tested on: SNB-75 CNS
TK-10 renal = tested on: TK-10 renal
HCC-2998 colon = tested on: HCC-2998 colon
PC-3 prostate = tested on: PC-3 prostate
SK-MEL-2 melanoma = tested on: SK-MEL-2 melanoma
SR leukemia = tested on: SR leukemia

Measured: TGI

N#CC(c1nc2ccccc2s1)c1ncnc(Cl)c1[N+](=O)[O-] (stereo not drawn)
56.3 µM: BT-549 breast
83.3 µM: NCI-H226 lung
34.8 µM: HT29 colon
47.1 µM: NCI-H460 lung
47.8 µM: OVCAR-3 ovarian
91.7 µM: OVCAR-5 ovarian
34.3 µM: M14 melanoma
41.9 µM: SN12C renal
83.2 µM: MDA-MB-435
not listed: HCC-2998 colon | PC-3 prostate | SK-MEL-2 melanoma | SR leukemia
> 100 µM: all other assays above

O=[N+]([O-])c1ccc2[nH]nc(OCc3ccccn3)c2c1
not listed: BT-549 breast
> 100 µM: all other assays above

CC1=NNC(=O)C1C1CC(c2c[nH]c3ccccc23)=NNC1=S (stereo not drawn)
not listed: HCC-2998 colon | SR leukemia
> 100 µM: all other assays above

CC(=O)N1CN2C(=O)CCC2c2ccccc21 (stereo not drawn)
97.9 µM: SR leukemia
not listed: BT-549 breast
> 100 µM: all other assays above

CC(C)CC[C@H](O)[C@@H](C)[C@H]1[C@@H](OC2OC(C)C(O)C(O)C2O)C[C@H]2[C@@H]3CC=C4C[C@@H](O)CC[C@]4(C)[C@H]3[C@@H](O)C[C@]12C (stereo partly drawn)
> 23.4 µM: M14 melanoma
59.1 µM: SNB-75 CNS
0.222 µM: SF-295 CNS
not listed: CCRF-CEM leukemia | NCI-H226 lung | SR leukemia
> 100 µM: all other assays above

COCO[C@@H]1C[C@H]2C(=O)N(COC)c3ccccc3C(=O)N2C1
not listed: NCI-H460 lung | OVCAR-3 ovarian | HCC-2998 colon | SR leukemia
> 100 µM: all other assays above

COc1cc(/C=C2/SC(c3ccccc3)N(c3cccc(Cl)c3)C2=O)cc(OC)c1OC (stereo not drawn)
39.9 µM: CCRF-CEM leukemia
72 µM: BT-549 breast
81.8 µM: SR leukemia
93.4 µM: MDA-MB-435
37.2 µM: SN12C renal
72.6 µM: HT29 colon
not listed: SNB-75 CNS | PC-3 prostate
> 100 µM: all other assays above

N#Cc1c2c(c(Nc3cccc(C(F)(F)F)c3)n3c1nc1ccccc13)CCC2
not listed: A549 NSCLC | CCRF-CEM leukemia | M14 melanoma | NCI-H460 lung | HCC-2998 colon | PC-3 prostate | SK-MEL-2 melanoma | SR leukemia
> 100 µM: all other assays above

c1ccc2c(c1)Nc1ccccc1[P+]21c2ccccc2Nc2ccccc21
2.9 µM: HT29 colon
0.631 µM: SN12C renal
1.27 µM: MDA-MB-435
3.29 µM: A549 NSCLC
2.44 µM: HCC-2998 colon
0.66 µM: NCI-H226 lung
2.04 µM: OVCAR-5 ovarian
0.332 µM: SNB-75 CNS
1.4 µM: SR leukemia
2.81 µM: NCI-H460 lung
5.93 µM: TK-10 renal
5.16 µM: SF-295 CNS
9.29 µM: ACHN renal
0.85 µM: CCRF-CEM leukemia
2.23 µM: M14 melanoma
0.869 µM: SK-OV-3 ovarian
0.612 µM: OVCAR-3 ovarian
0.482 µM: SK-MEL-2 melanoma
0.609 µM: PC-3 prostate

O=C(NCCCCN(CCCNC(=O)C(F)(F)F)Cc1ccc2ccccc2c1)C(F)(F)F
26.6 µM: HT29 colon
> 100 µM: A549 NSCLC
56.8 µM: NCI-H226 lung
29.9 µM: NCI-H460 lung
26.8 µM: HCC-2998 colon
47.9 µM: TK-10 renal
38.9 µM: ACHN renal
28.5 µM: SNB-75 CNS
36.5 µM: BT-549 breast
35.7 µM: MDA-MB-435
32.6 µM: OVCAR-5 ovarian
32.7 µM: SF-295 CNS
30.3 µM: M14 melanoma | SN12C renal
55.6 µM: SK-OV-3 ovarian

CC1=NOC2(C1)C(=O)Nc1ccccc12 (stereo not drawn)
not listed: BT-549 breast
> 100 µM: all other assays above
